Assay results taken from publication PMC6270165, “Synthesis and Biological Evaluation of 3-Benzisoxazolyl-4-indolylmaleimides as Potent, Selective Inhibitors of Glycogen Synthase Kinase-3β” (Molecules, 2013).

Experiments:
Assay type in all cases: biochemical
PKC-epsilon = target: T1, PKC-epsilon (Homo sapiens, UniProt Q02156); experiment: PKC-epsilon kinase assay (HTRF); settings: read-out: PKC-epsilon inhibition% at 0.8 μg/mL (~2 μM)
T1 construct: His-tag (N); made in house
T1 sequence (Q02156 1-737): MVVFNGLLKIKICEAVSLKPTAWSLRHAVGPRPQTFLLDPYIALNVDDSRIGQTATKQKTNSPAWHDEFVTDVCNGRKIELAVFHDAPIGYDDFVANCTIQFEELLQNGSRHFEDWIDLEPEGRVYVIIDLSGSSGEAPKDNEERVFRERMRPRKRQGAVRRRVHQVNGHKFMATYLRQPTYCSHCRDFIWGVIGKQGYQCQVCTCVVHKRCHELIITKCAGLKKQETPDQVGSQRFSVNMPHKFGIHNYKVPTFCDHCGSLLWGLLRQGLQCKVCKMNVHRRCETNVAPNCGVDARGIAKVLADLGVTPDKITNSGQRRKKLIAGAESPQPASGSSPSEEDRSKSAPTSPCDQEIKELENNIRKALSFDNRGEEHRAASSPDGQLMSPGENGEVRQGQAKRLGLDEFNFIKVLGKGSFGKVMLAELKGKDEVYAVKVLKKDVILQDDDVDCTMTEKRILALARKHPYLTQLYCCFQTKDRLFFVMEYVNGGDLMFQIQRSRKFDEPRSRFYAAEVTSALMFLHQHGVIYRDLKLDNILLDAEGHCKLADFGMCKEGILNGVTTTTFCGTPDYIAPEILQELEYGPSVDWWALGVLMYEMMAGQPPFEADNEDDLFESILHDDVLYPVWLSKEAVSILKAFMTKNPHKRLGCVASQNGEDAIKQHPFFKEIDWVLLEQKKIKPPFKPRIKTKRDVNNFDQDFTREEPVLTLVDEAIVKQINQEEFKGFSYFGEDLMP
Method: (§1) GSK3β belongs to CMGC family. Here, the other family members were used to evaluate the selectivity of GSK3β inhibitors, including PKC-epsilon (AGC family), JAK2 (TK family), Braf (TKL family), DRAK2 (CAMK family) and IKKβ (other family).The recombinant GST-GSK-3βprotein was expressed in Escherichia coli strain BL21-Codon Plus (DE3), purified by GSTrap affinity chromatography, and cleaved by thrombin. The GSK-3β kinase assay was carried out with the Z´-LYTETM Kinase Assay kit Ser/Thr 9 Peptide substrate (Invitrogen, Grand, NY, USA) in 10 μL reaction volume containing 50 nM enzyme, 30 μM ATP and 2 μM substrate peptide. Drak2 Proteins were presented by professor Jiang-ping Wu (Laboratory of Immunology, Research Centre, CHUM, Notre Dame Hospital, Pavilion DeSève). The Drak2 kinase reaction was performed in a final assay volume of 3.4 μL using the ADP-GLO Kinase Assay Kit (Promega, Madison, WI, USA), according the ADP-GLO protocol and read on an EnVision plate reader. The recombinant PKC-epsilon, IKKβ, and JAK2 with N-terminal His-tag were expressed using baculovirus expression system and purified with Ni-Beads. BRAF protein was from Carna Biosciences, Inc. (Kobe Port Island, Japan). And the related kinase reactions were performed in a final assay volume of 10 μL using the related HTRF Assay Kit (Cisbio, Codolet, France). Reactions were according the HTRF protocol and read on an EnVision plate reader. All reactions were carried out in triplicate. […] Data were expressed as mean ± SE.

JAK2 = target: T2, JAK2 (Homo sapiens, UniProt O60674); experiment: JAK2 kinase assay (HTRF); settings: read-out: JAK2 inhibition% at 0.8 μg/mL (~2 μM)
T2 construct: His-tag (N); made in house
T2 sequence (O60674 whole entry): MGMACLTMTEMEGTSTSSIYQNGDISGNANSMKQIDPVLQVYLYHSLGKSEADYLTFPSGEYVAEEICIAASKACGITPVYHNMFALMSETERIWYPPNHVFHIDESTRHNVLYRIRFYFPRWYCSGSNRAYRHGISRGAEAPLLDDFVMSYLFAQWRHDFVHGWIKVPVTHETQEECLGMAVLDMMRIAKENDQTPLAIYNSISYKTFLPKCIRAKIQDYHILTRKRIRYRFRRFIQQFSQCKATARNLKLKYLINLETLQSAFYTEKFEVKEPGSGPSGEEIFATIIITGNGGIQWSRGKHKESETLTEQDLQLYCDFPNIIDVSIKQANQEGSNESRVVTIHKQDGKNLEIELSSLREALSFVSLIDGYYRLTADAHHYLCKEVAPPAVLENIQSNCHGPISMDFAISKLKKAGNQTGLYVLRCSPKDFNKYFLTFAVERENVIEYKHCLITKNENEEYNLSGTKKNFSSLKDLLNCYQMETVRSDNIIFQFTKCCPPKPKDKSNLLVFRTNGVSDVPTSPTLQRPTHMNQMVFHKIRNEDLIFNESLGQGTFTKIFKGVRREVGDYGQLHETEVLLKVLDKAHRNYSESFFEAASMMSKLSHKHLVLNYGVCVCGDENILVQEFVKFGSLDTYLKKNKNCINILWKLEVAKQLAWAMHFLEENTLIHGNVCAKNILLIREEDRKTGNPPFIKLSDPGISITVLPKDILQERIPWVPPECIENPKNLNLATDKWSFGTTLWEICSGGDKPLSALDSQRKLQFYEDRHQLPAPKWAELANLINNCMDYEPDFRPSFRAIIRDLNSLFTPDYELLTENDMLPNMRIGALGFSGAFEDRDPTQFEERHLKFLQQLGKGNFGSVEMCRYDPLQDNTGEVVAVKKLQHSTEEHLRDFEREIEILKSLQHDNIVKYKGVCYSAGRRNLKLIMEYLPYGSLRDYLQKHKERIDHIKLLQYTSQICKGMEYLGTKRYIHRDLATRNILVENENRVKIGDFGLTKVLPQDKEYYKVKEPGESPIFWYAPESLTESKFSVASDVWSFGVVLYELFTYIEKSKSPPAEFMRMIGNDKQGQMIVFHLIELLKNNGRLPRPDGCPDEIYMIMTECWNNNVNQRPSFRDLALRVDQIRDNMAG
Method: as §1

IKK2 = target: T3, IKK2 (Homo sapiens, UniProt O14920); experiment: IKK2 (IKKβ) kinase assay (HTRF); settings: read-out: IKK2 inhibition% at 0.8 μg/mL (~2 μM)
T3 construct: His-tag (N); made in house
T3 sequence (O14920 1-756): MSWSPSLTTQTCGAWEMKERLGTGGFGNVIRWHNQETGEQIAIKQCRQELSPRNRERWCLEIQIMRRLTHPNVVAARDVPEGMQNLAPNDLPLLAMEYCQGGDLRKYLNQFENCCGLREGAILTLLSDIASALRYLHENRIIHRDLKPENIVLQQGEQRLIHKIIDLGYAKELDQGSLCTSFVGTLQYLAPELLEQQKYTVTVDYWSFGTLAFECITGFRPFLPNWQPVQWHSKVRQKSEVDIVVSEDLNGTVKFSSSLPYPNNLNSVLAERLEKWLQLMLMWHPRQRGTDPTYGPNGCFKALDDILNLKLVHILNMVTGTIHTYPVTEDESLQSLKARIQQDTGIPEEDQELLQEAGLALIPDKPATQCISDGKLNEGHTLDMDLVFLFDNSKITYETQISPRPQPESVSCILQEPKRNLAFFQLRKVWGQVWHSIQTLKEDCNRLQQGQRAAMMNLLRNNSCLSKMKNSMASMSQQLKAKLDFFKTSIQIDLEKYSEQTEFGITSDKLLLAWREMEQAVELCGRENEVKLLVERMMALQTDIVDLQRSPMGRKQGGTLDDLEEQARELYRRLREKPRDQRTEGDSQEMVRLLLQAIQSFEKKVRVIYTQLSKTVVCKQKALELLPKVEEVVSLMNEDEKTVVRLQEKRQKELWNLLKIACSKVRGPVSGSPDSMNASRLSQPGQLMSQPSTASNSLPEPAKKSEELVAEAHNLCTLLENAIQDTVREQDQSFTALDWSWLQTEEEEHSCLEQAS
Method: as §1

O=C1NC(=O)C(c2cn(CCCN3CCOCC3)c3ccc(Br)cc23)=C1c1noc2ccccc12 [7c, 3-(Benzo[d]isoxazol-3-yl)-4-(5-bromo-1-(3-morpholinopropyl)-1H-indol-3-yl)-1H-pyrrole-2,5-dione]
inhibition at 2 µM (PKC-epsilon): 12.1% | inhibition at 2 µM (JAK2): 0.1% | inhibition at 2 µM (IKK2): 13.1%
